According to patent publication US10239832B2, “N-(1-hydroxy-3-(pyrrolidinyl)propan-2-yl)pyrrolidine-3-carboxamide derivatives as glucosylceramide synthase inhibitors” (BIOMARIN PHARMACEUTICAL INC., priority 2013, dated 2019):

Molecular target: T1, GCS (Canis lupus familiaris, UniProt A0A8I3MXG6)
T1 construct: endogenous in cells; host or cells: MDCK (Madin-Darby canine kidney) cells, whole-cell lysate
T1 sequence (A0A8I3MXG6 1-394): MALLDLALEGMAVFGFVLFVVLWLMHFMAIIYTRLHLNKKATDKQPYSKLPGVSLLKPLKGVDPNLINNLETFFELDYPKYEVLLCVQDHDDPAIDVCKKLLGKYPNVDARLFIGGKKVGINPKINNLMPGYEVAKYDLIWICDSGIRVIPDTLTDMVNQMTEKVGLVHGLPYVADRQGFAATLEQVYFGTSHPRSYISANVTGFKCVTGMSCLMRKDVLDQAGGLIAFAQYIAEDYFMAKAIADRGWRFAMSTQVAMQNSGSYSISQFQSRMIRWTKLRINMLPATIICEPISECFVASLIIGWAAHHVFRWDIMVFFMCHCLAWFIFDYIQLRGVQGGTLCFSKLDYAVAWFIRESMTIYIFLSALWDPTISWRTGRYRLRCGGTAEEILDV
Assay: GCS enzymatic assay (MDCK cell lysate, NBD-ceramide to glucosylceramide, LC/MS)
Assay type: biochemical, canine
Settings: Table 2; class symbols A, B, C; the table does not say which of the assays; read-out: Data Range (IC50 values)
In short: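 IC50 or percent inhibition came from LC/MS/MS (ESI+, MRM) of NBD-ceramide and glucosylceramide, with tolbutamide as internal standard. The reaction used MDCK (canine) cell lysate as the enzyme source and was ended with acetonitrile. Mock wells received 0.1% DMSO.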

Row | Structure (SMILES) | IC50 [nM]
1 | O=C(N[C@H](CN1CCCC1)[C@H](O)c1ccc2c(c1)OCCO2)[C@H]1CCN(c2ccc3cc(Cl)sc3c2)C1 [Compound 76E, (S)-1-(2-chlorobenzo[b]thiophen-6-yl)-N-((1R,2R)-1-(2,3-dihydrobenzo[b][1,4]dioxin-6-yl)-1-hydroxy-3-(pyrrolidin-1-yl)propan-2-yl)pyrrolidine-3-carboxamide] | 1 to 30
2 | O=C(N[C@H](CN1CCC1)[C@H](O)c1ccc2c(c1)OCCO2)[C@@H]1CCN(c2ccc(Cl)cc2)C1 [Compound 78, (R)-N-((1R,2R)-3-(azetidin-1-yl)-1-(2,3-dihydrobenzo[b][1,4]dioxin-6-yl)-1-hydroxypropan-2-yl)-1-(4-chlorophenyl)pyrrolidine-3-carboxamide] | 1 to 30
3 | O=C(N[C@H](CN1CCC1)[C@H](O)c1ccc2c(c1)OCCO2)[C@@H]1CCN(c2ccc3cc(F)ccc3c2)C1 [Compound 79, (R)-N-((1R,2R)-3-(azetidin-1-yl)-1-(2,3-dihydrobenzo[b][1,4]dioxin-6-yl)-1-hydroxypropan-2-yl)-1-(6-fluoronaphthalen-2-yl)pyrrolidine-3-carboxamide] | 1 to 30
4 | O=C(N[C@H](CN1CCC1)[C@H](O)c1ccc2c(c1)OCCO2)C1CCN(c2ccc3cc(F)ccc3c2)C1 (stereo partly drawn) [Compound 79A, N-((1R,2R)-3-(azetidin-1-yl)-1-(2,3-dihydrobenzo[b][1,4]dioxin-6-yl)-1-hydroxypropan-2-yl)-1-(6-fluoronaphthalen-2-yl)pyrrolidine-3-carboxamide] | 1 to 30
5 | O=C(N[C@H](CN1CCCC1)[C@H](O)c1cc(F)c2c(c1)OCCO2)[C@@H]1CCN(c2ccc3ccccc3c2)C1 [Compound 81, (R)-N-((1R,2R)-1-(8-fluoro-2,3-dihydrobenzo[b][1,4]dioxin-6-yl)-1-hydroxy-3-(pyrrolidin-1-yl)propan-2-yl)-1-(naphthalen-2-yl)pyrrolidine-3-carboxamide] | 1 to 30
6 | O=C(N[C@H](CN1CCCC1)[C@H](O)c1ccc(OC2CC2)c(Cl)c1)[C@@H]1CCN(c2ccc3cc(F)ccc3c2)C1 [Compound 84, (R)-N-((1R,2R)-1-(3-chloro-4-cyclopropoxyphenyl)-1-hydroxy-3-(pyrrolidin-1-yl)propan-2-yl)-1-(6-fluoronaphthalen-2-yl)pyrrolidine-3-carboxamide] | 1 to 30
7 | O=C(N[C@H](CN1CCC1)[C@H](O)c1cc(F)c2c(c1)OCCO2)[C@@H]1CCN(c2ccc3ccccc3c2)C1 [Compound 85, (R)-N-((1R,2R)-3-(azetidin-1-yl)-1-(8-fluoro-2,3-dihydrobenzo[b][1,4]dioxin-6-yl)-1-hydroxypropan-2-yl)-1-(naphthalen-2-yl)pyrrolidine-3-carboxamide] | 1 to 30
8 | O=C(N[C@H](CN1CCC1)[C@H](O)c1ccc(OC2CC2)c(Cl)c1)[C@@H]1CCN(c2ccc3ccccc3c2)C1 [Compound 86, (R)-N-((1R,2R)-3-(azetidin-1-yl)-1-(3-chloro-4-cyclopropoxyphenyl)-1-hydroxypropan-2-yl)-1-(naphthalen-2-yl)pyrrolidine-3-carboxamide] | 1 to 30
9 | CC(C)(O)COc1ccc([C@@H](O)[C@@H](CN2CCCC2)NC(=O)[C@@H]2CCN(c3ccc(Cl)cc3)C2)cc1Cl [Compound 87, (R)-N-((1R,2R)-1-(3-chloro-4-(2-hydroxy-2-methylpropoxy)phenyl)-1-hydroxy-3-(pyrrolidin-1-yl)propan-2-yl)-1-(4-chlorophenyl)pyrrolidine-3-carboxamide] | 1 to 30
10 | O=C(N[C@H](CN1CCC1)[C@H](O)c1cc(F)c2c(c1)OCCO2)[C@@H]1CCN(c2ccc3cc(Cl)ccc3c2)C1 [Compound 89, (R)-N-((1R,2R)-3-(azetidin-1-yl)-1-(8-fluoro-2,3-dihydrobenzo[b][1,4]dioxin-6-yl)-1-hydroxypropan-2-yl)-1-(6-chloronaphthalen-2-yl)pyrrolidine-3-carboxamide] | 1 to 30

Other lines, results leading:

Row | IC50 [nM] | Structure (SMILES)
11 | 1 to 30 | O=C(N[C@H](CN1CCCC1)[C@H](O)c1ccc2c(c1)OCCO2)C1CCN(c2ccc3c(c2)CCCC3)C1 (stereo partly drawn) [Compound 80G, N-((1R,2R)-1-(2,3-dihydrobenzo[b][1,4]dioxin-6-yl)-1-hydroxy-3-(pyrrolidin-1-yl)propan-2-yl)-1-(5,6,7,8-tetrahydronaphthalen-2-yl)pyrrolidine-3-carboxamide]
12 | 1 to 30 | O=C(N[C@H](CN1CCCC1)[C@H](O)c1ccc2c(c1)OCCO2)[C@H]1CCN(c2ccc3c(c2)CCCC3)C1 [Compound 80H, (S)-N-((1R,2R)-1-(2,3-dihydrobenzo[b][1,4]dioxin-6-yl)-1-hydroxy-3-(pyrrolidin-1-yl)propan-2-yl)-1-(5,6,7,8-tetrahydronaphthalen-2-yl)pyrrolidine-3-carboxamide]

Same assay, conditions: Table 2; class symbols D, E, F, NA (not active); the table does not say which of the assays

Row | Structure (SMILES) | Data Range (% inhibition)
13 | O=C(N[C@H](CN1CCC1)[C@H](O)c1ccc2c(c1)OCCO2)[C@H]1CCN(c2ccc3cc(F)ccc3c2)C1 [Compound 79B, (S)-N-((1R,2R)-3-(azetidin-1-yl)-1-(2,3-dihydrobenzo[b][1,4]dioxin-6-yl)-1-hydroxypropan-2-yl)-1-(6-fluoronaphthalen-2-yl)pyrrolidine-3-carboxamide] | E (50-74% (or less than 75%))
14 | O=C(N[C@H](CN1CCCC1)[C@H](O)c1ccc2c(c1)OCCO2)[C@@H]1CCN(c2ccc3c(c2)CCCC3)C1 [Compound 80, (R)-N-((1R,2R)-1-(2,3-dihydrobenzo[b][1,4]dioxin-6-yl)-1-hydroxy-3-(pyrrolidin-1-yl)propan-2-yl)-1-(5,6,7,8-tetrahydronaphthalen-2-yl)pyrrolidine-3-carboxamide] | E (50-74% (or less than 75%))
15 | Cc1cc(N2CC[C@@H](C(=O)N[C@H](CN3CCCC3)[C@H](O)c3ccc4c(c3)OCCO4)C2)cc(C)n1 [Compound 82, (R)-N-((1R,2R)-1-(2,3-dihydrobenzo[b][1,4]dioxin-6-yl)-1-hydroxy-3-(pyrrolidin-1-yl)propan-2-yl)-1-(2,6-dimethylpyridin-4-yl)pyrrolidine-3-carboxamide] | NA (not active—a negative value was generated for % inhibition)
16 | Cc1cc(N2CC[C@H](C(=O)N[C@H](CN3CCCC3)[C@H](O)c3ccc4c(c3)OCCO4)C2)cc(C)n1 [Compound 82E, (S)-N-((1R,2R)-1-(2,3-dihydrobenzo[b][1,4]dioxin-6-yl)-1-hydroxy-3-(pyrrolidin-1-yl)propan-2-yl)-1-(2,6-dimethylpyridin-4-yl)pyrrolidine-3-carboxamide] | NA (not active—a negative value was generated for % inhibition)
17 | O=C(N[C@H](CN1CCCC1)[C@H](O)c1ccc2c(c1)OCCO2)[C@@H]1CCN(c2ccc3nccnc3c2)C1 [Compound 83, (R)-N-((1R,2R)-1-(2,3-dihydrobenzo[b][1,4]dioxin-6-yl)-1-hydroxy-3-(pyrrolidin-1-yl)propan-2-yl)-1-(quinoxalin-6-yl)pyrrolidine-3-carboxamide] | F (1-49% (or less than 50%))
18 | O=C(N[C@H](CN1CCCC1)[C@H](O)c1ccc2c(c1)OCCO2)[C@H]1CCN(c2ccc3nccnc3c2)C1 [Compound 83D, (S)-N-((1R,2R)-1-(2,3-dihydrobenzo[b][1,4]dioxin-6-yl)-1-hydroxy-3-(pyrrolidin-1-yl)propan-2-yl)-1-(quinoxalin-6-yl)pyrrolidine-3-carboxamide] | NA (not active—a negative value was generated for % inhibition)
19 | O=C(N[C@H](CN1CCCC1)[C@H](O)c1ccc2c(c1)OCCO2)[C@@H]1CCN(c2ccc3cc(F)ccc3c2Cl)C1 [Compound 88, (R)-1-(1-chloro-6-fluoronaphthalen-2-yl)-N-((1R,2R)-1-(2,3-dihydrobenzo[b][1,4]dioxin-6-yl)-1-hydroxy-3-(pyrrolidin-1-yl)propan-2-yl)pyrrolidine-3-carboxamide] | D (75-100%)

Second part, the molecule after the results:

Row | Data Range (% inhibition) | Structure (SMILES)
20 | F (1-49% (or less than 50%)) | O=C(N[C@H](CN1CCCC1)[C@H](O)c1ccc2c(c1)OCCO2)C1CCN(c2ccc3nccnc3c2)C1 (stereo partly drawn) [Compound 83C, N-((1R,2R)-1-(2,3-dihydrobenzo[b][1,4]dioxin-6-yl)-1-hydroxy-3-(pyrrolidin-1-yl)propan-2-yl)-1-(quinoxalin-6-yl)pyrrolidine-3-carboxamide]
21 | F (1-49% (or less than 50%)) | O=C(N[C@H](CN1CCCC1)[C@H](O)c1ccc(OC2CC2)c(Cl)c1)[C@H]1CCN(c2ccc3cc(F)ccc3c2)C1 [Compound 84A, (S)-N-((1R,2R)-1-(3-chloro-4-cyclopropoxyphenyl)-1-hydroxy-3-(pyrrolidin-1-yl)propan-2-yl)-1-(6-fluoronaphthalen-2-yl)pyrrolidine-3-carboxamide]
22 | D (75-100%) | O=C(N[C@H](CN1CCCC1)[C@H](O)c1ccc2c(c1)OCCO2)C1CCN(c2ccc3cc(F)ccc3c2Cl)C1 (stereo partly drawn) [Compound 88C, 1-(1-chloro-6-fluoronaphthalen-2-yl)-N-((1R,2R)-1-(2,3-dihydrobenzo[b][1,4]dioxin-6-yl)-1-hydroxy-3-(pyrrolidin-1-yl)propan-2-yl)pyrrolidine-3-carboxamide]
23 | F (1-49% (or less than 50%)) | O=C(N[C@H](CN1CCCC1)[C@H](O)c1ccc2c(c1)OCCO2)[C@H]1CCN(c2ccc3cc(F)ccc3c2Cl)C1 [Compound 88D, (S)-1-(1-chloro-6-fluoronaphthalen-2-yl)-N-((1R,2R)-1-(2,3-dihydrobenzo[b][1,4]dioxin-6-yl)-1-hydroxy-3-(pyrrolidin-1-yl)propan-2-yl)pyrrolidine-3-carboxamide]
